According to PMC10401651, “Characterization of Uranyl (UO2^2+) Ion Binding to Amyloid Beta (Aβ) Peptides: Effects on Aβ Structure and Aggregation” (ACS Chemical Neuroscience, 2023):
“And” between values parts separate entries of the source, which are not always exact repeats. Equal values may be shown once. Read-outs that look alike come from different tables or passages of the source.

How the values were obtained:
Aβ40 peptide = biological target: T1, Aβ40 peptide (Homo sapiens, UniProt P05067); test: Binding affinity via Tyr10 fluorescence quenching, Aβ40; settings: for Kd: 20 μM Aβ40
T1 construct: namely, the Aβ40 peptide and the Aβ40 (H6A, H13A, and H14A) triple-mutant; purchased AlexoTech AB (Umeå, Sweden); host or cells: recombinant
Protocol: Fluorescence measurements were conducted on a Jobin Yvon Horiba Fluorolog 3 fluorescence spectrophotometer (Longjumeau, France) using a quartz cuvette with a 4 mm path length. […] Apparent dissociation constants (KD^App) were determined by fitting the plots to eq 2 [drawing 2] 2 where I0 is the initial fluorescence intensity with no added UO2^2+ ions, I∞ is the steady-state intensity at the end of the titration, [Ab] is the protein concentration, and [U] is the concentration of added UO2^2+ ions.[121],[160]

Aβ40 peptides [1] = biological target: T2, Aβ40 peptides (Homo sapiens, UniProt P05067); test: CD spectroscopy on the Aβ40 secondary structure
T2 construct: namely, the Aβ40 peptide; purchased AlexoTech AB (Umeå, Sweden); host or cells: recombinant
Protocol: The CD spectra for Aβ40 monomers in aqueous buffer display spectra with minima around 196–198 nm (Figure 5B,E), which is typical for a random coil conformation. […] The difference spectrum is not conclusive but might represent β-sheet conformation (Figure 5C).
CD measurements were carried out on a Chirascan CD spectrometer from Applied Photophysics Ltd. (U.K). Samples containing 600 μL of 10 μM Aβ40 peptide in 20 mM phosphate buffer, at either pH 7.3 or pH 5.1, were placed in a quartz cuvette with a 2 mm pathlength. CD spectra were recorded at 20 °C between 192 and 250 nm using steps of 0.5 nm and a sampling time of 5 s per data point. […] All data was processed with the Chirascan Pro-Data v.4.4.1 software (Applied Photophysics Ltd., U.K.), including smoothing with a ten-point smoothing filter. 50 mM SDS detergent was added to some of the samples as SDS micelles constitute a simple model for bio-membranes.[125],[126] Aβ peptides are known to insert their central and C-terminal segments as α-helices into SDS micelles, while the N-terminal Aβ segment remains unstructured outside the micelle surface.[19],[125] Because the critical micelle concentration for SDS is 8.2 mM in water at 25 °C,[152] micelles clearly formed under the experimental conditions. With approximately 62–65 SDS molecules per micelle,[156] 50 mM SDS yields a micelle concentration slightly below 1 mM, i.e., much higher than the concentration of Aβ peptides. This means that each micelle will generally contain no more than one Aβ peptide, which effectively prevents Aβ aggregation and ensures that uranyl interactions are with monomeric Aβ peptides. […] Even though 50 mM SDS would efficiently denature most folded proteins, such denaturing effects are not relevant for small intrinsically disordered peptides such as Aβ (in monomeric form).

Aβ40 peptides [2] = biological target: T2, Aβ40 peptides; test: ThT fluorescence measurements of Aβ40 aggregation kinetics; assay type: biochemical; settings: for t1/2 (aggregation halftime): 15 h; for ΔThT (increase in ThT fluorescence): 20 μM Aβ40, pH 7.3, 37 °C, end of 15 h
Protocol: Fitting eq 1 to the ThT fluorescence curves in Figure 1 produced the kinetic parameters Tlag and t1/2 (Table 1). […] The two samples with 0 and 0.04 μM uranyl both have aggregation half-times of around 3 h and lag times of around 2 h under the experimental conditions (Table 1). The aggregation of the 0.2 μM uranyl sample is clearly slower, with a half-time of almost 7 h and a lag time of around 5 h.
Thioflavin T is a benzothiazole dye that increases in fluorescence upon binding to amyloid aggregates[116] and is therefore used to monitor the formation of amyloid aggregates. The ThT dye was excited at 440 nm, and ThT fluorescence emission at 480 nm was measured every 5 min. Before each measurement, the plate was shaken in orbital mode for 140 s at 200 rpm. The samples were incubated for a total of 15 h, and the assay was repeated three times with four replicates of each condition. To determine kinetic aggregation parameters, the data was fitted to eq 1: [drawing 1] 1 Here, F0 and F∞ are the intercepts of the initial and final fluorescence intensity baselines, m0 and m∞ are the slopes of the initial and final baselines, t1/2 is the time needed to reach halfway through the elongation phase (i.e., aggregation half-time), and τ is the elongation time constant.[116]

[3] = 0.04 μM uranyl acetate, 20 μM Aβ40, 20 mM MES pH 7.3, 37 °C
[4] = 0.2 μM uranyl acetate, 20 μM Aβ40, 20 mM MES pH 7.3, 37 °C
[5] = 0.2 μM uranyl acetate, 20 μM Aβ40, 20 mM MES pH 7.3, 37 °C, listed as uranyl

T1 sequence (P05067 672-711 limits assumed): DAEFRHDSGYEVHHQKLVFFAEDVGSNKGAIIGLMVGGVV
T2 sequence (P05067 672-711 limits assumed): as above

CC(=O)[O-].CC(=O)[O-].[O]=[U+2]=[O] [uranyl ions, uranyl acetate]
affinities for binding to Aβ peptides (Aβ40 peptide; general statement of the abstract): micromolar range | Kd (Aβ40 peptide; pH 5.1 + 50 mM SDS, read-out: KD^App, single replicates): 21.8 µM and 21.7 µM and 27.4 µM | Kd (Aβ40 peptide; pH 5.1 + 50 mM SDS, three replicates, read-out: KD^App, average): 23.6 ± 3 µM | Kd (Aβ40 peptide; pH 5.1, 20 mM MES, read-out: KD^App, single replicates): 14 µM and 13.7 µM and 21.3 µM | Kd (Aβ40 peptide; pH 5.1, 20 mM MES, three replicates, read-out: KD^App, average): 16.3 ± 4 µM | Kd (Aβ40 peptide; pH 7.3 + 50 mM SDS, not to be trusted, read-out: KD^App, single replicates): 206 µM and 252 µM and 251 µM | Kd (Aβ40 peptide; pH 7.3 + 50 mM SDS, three replicates, not to be trusted, read-out: KD^App, average): 236 ± 22 µM | Kd (Aβ40 peptide; pH 7.3, 20 mM MES, data deviate from single-site model, not to be trusted, read-out: KD^App, single replicates): 130 µM and 141 µM and 148 µM | Kd (Aβ40 peptide; pH 7.3, 20 mM MES, three replicates, not to be trusted, read-out: KD^App, average): 140 ± 8 µM | structural transition of Aβ40 (CD) (Aβ40 peptides [1]; 50 mM SDS micelles, pH 5.1, 10 μM Aβ40): structural conversion from α-helix to a random coil | changes in the Aβ40 CD spectrum (Aβ40 peptides [1]; 50 mM SDS micelles, pH 7.3, 10 μM Aβ40): no changes at all | structural transition of Aβ40 (CD) (Aβ40 peptides [1]; aqueous buffer pH 5.1, 10 μM Aβ40, 2-256 μM uranyl acetate, 20 °C): conversion from random coil to β-sheet | structural effect on Aβ40 (CD), compared with pH 5.1 (Aβ40 peptides [1]; aqueous buffer pH 7.3, 10 μM Aβ40, 2-256 μM uranyl acetate, 20 °C): weaker | Tlag (lag time) (Aβ40 peptides [2]; [3]): 2.0 ± 1.1 h | t1/2 (aggregation halftime) (Aβ40 peptides [2]; [3]): around 3 h | Tlag (lag time) (Aβ40 peptides [2]; 0.04 μM uranyl acetate, 20 μM Aβ40, 20 mM MES pH 7.3, 37 °C, listed as uranyl): around 2 h | ΔThT (increase in ThT fluorescence) (Aβ40 peptides [2]; 0.04 μM uranyl acetate): 1286 a.u. | Tlag (lag time) (Aβ40 peptides [2]; [4]): 5.2 ± 0.9 h | t1/2 (aggregation halftime) (Aβ40 peptides [2]; [4]): 6.7 ± 1.4 h | t1/2 (aggregation halftime) (Aβ40 peptides [2]; [5]): ~7 h | Tlag (lag time) (Aβ40 peptides [2]; [5]): around 5 h | ΔThT (increase in ThT fluorescence) (Aβ40 peptides [2]; 0.2 μM uranyl acetate): 958 a.u. | ΔThT (increase in ThT fluorescence) (Aβ40 peptides [2]; 0.4 μM uranyl acetate): 101 a.u. | lag time, visually estimated (Aβ40 peptides [2]; 0.4 μM uranyl, 20 μM Aβ40, 20 mM MES pH 7.3, 37 °C): approximately 9 h | ΔThT (increase in ThT fluorescence) (Aβ40 peptides [2]; 2 μM uranyl acetate): 0 a.u. | ΔThT (increase in ThT fluorescence) (Aβ40 peptides [2]; 20 μM uranyl acetate): 0 a.u. | Aβ40 aggregation seen in ThT curves (Aβ40 peptides [2]; 2 and 20 μM uranyl, 20 μM Aβ40, 15 h): no obvious signs of aggregation after 15 h
